The IC50 is the midpoint of a concentration-inhibition curve.

Where two headings read alike, the source gives them in different places.

We go through 45 molecules from patent US9556159B2, “Renin inhibitor” (MITSUBISHI TANABE PHARMA CORPORATION, priority 2012, dated 2017).

This assay addresses T1, Recombinant human renin (Homo sapiens, UniProt P00797).
T1 sequence (P00797 67-406): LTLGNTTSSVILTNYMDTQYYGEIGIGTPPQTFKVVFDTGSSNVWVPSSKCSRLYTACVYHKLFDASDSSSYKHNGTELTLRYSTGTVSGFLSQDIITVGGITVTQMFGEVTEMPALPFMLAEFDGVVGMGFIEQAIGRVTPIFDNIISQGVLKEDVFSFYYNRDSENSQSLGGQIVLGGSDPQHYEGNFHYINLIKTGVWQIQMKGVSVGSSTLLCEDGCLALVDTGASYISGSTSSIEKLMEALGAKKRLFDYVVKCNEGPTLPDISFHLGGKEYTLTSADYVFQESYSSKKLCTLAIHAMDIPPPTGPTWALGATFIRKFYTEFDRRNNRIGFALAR
Put plainly: Inhibitory activity against human renin (fluorogenic peptide substrate). The following applies: 37° C. for 1 hour. Type of assay: biochemical.

Setting [1] is: 50% inhibitory concentration (IC50) against human renin.

As to `COC(=O)NCCCc1nc([C@@H](C)N(C(=O)[C@H]2CNCCO2)C2CC2)sc1-c1ccccc1` [Example 218], the concentration for half-maximal inhibition (IC50) under setting [1] was found to be 1.1 nM. Consider `COC[C@@H]1CNC[C@H](C(=O)N(C2CC2)[C@H](C)c2nc(CCCNC(=O)OC)c(-c3cccc(Cl)c3)s2)O1` [Example 378], for which the IC50 under setting [1] turned out to be 3.5 nM. The same measure, in the same setting: under `COC(=O)NCCOc1cc([C@@H](C)N(C(=O)[C@H]2CNCCO2)C2CC2)nn1-c1ccccc1` [Example 208] stands 2.3 nM. Regarding `CCc1c([C@@H](C)N(C(=O)[C@H]2CNCCO2)C2CC2)nn(CCCNC(=O)OC)c1-c1ccccn1` [Example 217], the IC50 under setting [1] stood at 1.5 nM. Consider `COC(=O)NCCCc1cc(C2CC2)nc([C@@H](C)N(C(=O)[C@H]2CNCCO2)C2CC2)c1` [Example 133], for which the IC50 under setting [1] is 1.6 nM.

For `COC(=O)NCCCn1nc([C@@H](C)N(C(=O)[C@H]2CNCCO2)C2CC2)cc1-c1cccc(F)c1` [Example 172], the IC50 under setting [1] was 0.4 nM.

Regarding `COC(=O)NC/C=C/c1cc([C@@H](C)N(C(=O)[C@H]2CNCCO2)C2CC2)nn1-c1ccccc1` [Example 357], the 50% inhibitory concentration (IC50) under setting [1] was found to be 3.5 nM. As for `COC(=O)NCCCc1cc([C@@H](C)N(C(=O)[C@H]2CNCCO2)C2CC2)nc(C2CC2)n1` [Example 374], the IC50 under setting [1] is 5.4 nM. For `COC(=O)NCCCn1cc([C@@H](C)N(C(=O)[C@H]2CNCCO2)C2CC2)nc1-c1ccc(Cl)cc1` [Example 170], the half-inhibitory concentration (IC50) under setting [1] was determined as 0.4 nM.

Take `COC(=O)NCCCc1nc([C@@H](C)N(C(=O)[C@H]2CNCCO2)C2CC2)cnc1O[C@@H]1CCOC1` [Example 433]: the 50% inhibitory concentration (IC50) under setting [1] was determined as 5.3 nM. The same measure, in the same setting: under `COC(=O)NCCCc1nc([C@@H](C)N(C(=O)[C@H]2CNCCO2)C2CC2)sc1-c1cn[nH]c1` [Example 421] stands 2.2 nM; under `COC(=O)NCCCn1cc([C@@H](C)N(C(=O)[C@H]2CN[C@@H](C)CO2)C2CC2)nc1-c1ccc(F)cc1` [Example 280], 0.3 nM. `COC(=O)NCCCc1nc(OC)cc([C@@H](C)N(C(=O)[C@H]2CNCCO2)C2CC2)n1` [Example 298]: the half-maximal inhibitory concentration (IC50) under setting [1] is 3.5 nM.

For `COC(=O)NCCCn1cc([C@@H](C)N(C(=O)[C@H]2CNCCO2)C2CC2)c2nccc(C)c21` [Example 42], the IC50 (read-out: IC50) stood at 0.5 nM. For the molecule `COC[C@@H]1CNC[C@H](C(=O)N(C2CC2)[C@@H](C)c2nn(CCCNC(=O)OC)c(-c3ccccn3)c2C)O1` [Example 337], the IC50 under setting [1] was determined as 1.2 nM. For `COC(=O)NCCCn1nc([C@@H](C)N(C(=O)[C@H]2CNCCO2)C2CC2)c2ccc(CN(C)C)nc21` [Example 100], the 50% inhibitory concentration (IC50) (read-out: IC50) is 9 nM.

For `COC(=O)NCCCn1nc([C@@H](C)N(C(=O)[C@H]2CN[C@@H](C)CO2)C2CC2)c2ccc(C)nc21` [Example 249], the IC50 under setting [1] stood at 0.5 nM. Still for that read-out and setting: under `COCCCc1cn(C)c2c(C)nc([C@@H](C)N(C(=O)[C@H]3CNCCO3)C3CC3)cc12` [Example 113] stands 1.4 nM; under `COC[C@H]1CO[C@@H](C(=O)N(C2CC2)[C@H](C)c2cc(CCCNC(=O)OC)nc(OC)c2)CN1` [Example 271], 3 nM; under `COC(=O)NCCCn1nc([C@@H](C)N(C(=O)[C@H]2CNCCO2)C2CC2)cc1C(C)C` [Example 188], 0.5 nM. For `COC(=O)NCCCc1cc([C@@H](C)N(C(=O)[C@H]2CNCCO2)C2CC2)sc1Cc1nnn[nH]1` [Example 272], under setting [1], the IC50 came to 6.1 nM. Still for that read-out and setting: next, `COC(=O)NCCCc1cc([C@@H](C)N(C(=O)[C@H]2CNCCO2)C2CC2)sc1-c1ccc(C)nc1` [Example 228]: 0.4 nM; `COC(=O)NCCCc1cc([C@@H](C)N(C(=O)[C@H]2CNCCO2)C2CC2)sc1-c1cnc(N)nc1` [Example 409]: 1 nM.

As to `COC(=O)NCCCc1nc([C@@H](C)N(C(=O)[C@H]2CNCCO2)C2CC2)sc1-c1ccccc1F` [Example 417], the half-maximal inhibitory concentration (IC50) under setting [1] came out at 3.4 nM.

For `COC(=O)NCCCn1cc([C@@H](C)N(C(=O)[C@H]2CNCCO2)C2CC2)nc1C1CCOCC1` [Example 291], the 50% inhibitory concentration (IC50) under setting [1] was 0.6 nM.

As for `COC(=O)NCCCc1cc([C@@H](C)N(C(=O)[C@H]2CNCCO2)C2CC2)sc1-c1ccccc1NS(=O)(=O)C(F)(F)F` [Example 297], under setting [1], the IC50 is 0.5 nM. In the case of `COC(=O)NCCCn1cc(C(C)N(C(=O)[C@H]2CNCCO2)C2CC2)c2ncc(F)cc21` (stereo partly drawn) [Example 139], the IC50 under setting [1] is 2.1 nM. For `COC(=O)NCCCc1sc([C@@H](C)N(C(=O)[C@H]2CNCCO2)C2CC2)nc1-c1ccccc1` [Example 206], the concentration for half-maximal inhibition (IC50) under setting [1] is 1.5 nM. Take `COC(=O)NCCCc1nc([C@@H](C)N(C(=O)[C@H]2CNCCO2)C2CC2)sc1-c1ccc(C)nc1` [Example 408]: under setting [1], the concentration for half-maximal inhibition (IC50) worked out at 1.1 nM.

Turning to `COC(=O)NCCCc1cc([C@@H](C)N(C(=O)[C@H]2CNCCO2)C2CC2)sc1-c1cc(C(F)(F)F)ccc1C(=O)OC` [Example 262], under setting [1], the IC50 amounted to 3.9 nM.

Regarding `COC(=O)NCCCc1cc([C@@H](C)N(C(=O)[C@H]2CNCCO2)C2CC2)sc1-c1ccccc1C(=O)NS(=O)(=O)c1ccccc1` [Example 288], the concentration for half-maximal inhibition (IC50) under setting [1] was 0.4 nM. As for `COC(=O)NCCCn1nc([C@@H](C)N(C(=O)[C@H]2CNCCO2)C2CC2)c2ccc(C(F)(F)F)nc21` [Example 72], the IC50 (read-out: IC50) stood at 0.7 nM. For the molecule `COC(=O)NCC(F)Cn1nc([C@@H](C)N(C(=O)[C@H]2CNCCO2)C2CC2)cc1-c1ccccc1` (stereo partly drawn) [Example 199], the half-maximal inhibitory concentration (IC50) under setting [1] stood at 0.2 nM. Same read-out and setting: under `CNC(=O)[C@@H]1CNC[C@H](C(=O)N(C2CC2)[C@H](C)c2nn(CCCNC(=O)OC)c3nc(C)ccc23)O1` [Example 259] stands 1.2 nM; under `CCc1cc([C@@H](C)N(C(=O)[C@H]2CNC[C@@H](C)O2)C2CC2)nc2c1cnn2CCCOC` [Example 380], 2.6 nM.

`CCc1nc([C@@H](C)N(C(=O)[C@H]2CNCCO2)C2CC2)cc2c1ccn2Cc1ccccc1` [Example 147]: under setting [1], the IC50 stood at 2.5 nM.

With `COC(=O)NCCCc1cc([C@@H](C)N(C(=O)[C@H]2CNCCO2)C2CC2)nc2cc(F)c(F)cc12` [Example 143], under setting [1], the IC50 was determined as 1.5 nM.

Consider `CCn1nc([C@@H](C)N(C(=O)[C@H]2CNCCO2)C2CC2)cc1CCCNC(=O)OC` [Example 209], for which the 50% inhibitory concentration (IC50) under setting [1] was found to be 2.1 nM. Regarding `COC(=O)NCCCc1cc([C@@H](C)N(C(=O)[C@H]2CNCCO2)C2CC2)cc(C)n1` [Example 97], the concentration for half-maximal inhibition (IC50) (read-out: IC50) turned out to be 8.2 nM. In the case of `COC(=O)NCCCc1nc(OC)cc([C@@H](C)N(C(=O)[C@H]2CNC[C@@H](C)O2)C2CC2)n1` [Example 375], the IC50 under setting [1] was determined as 1.3 nM.

Take `COC(=O)NCCCc1cc([C@@H](C)N(C(=O)[C@H]2CNCCO2)C2CC2)nn1-c1ccc(C)cc1` [Example 231]: the half-inhibitory concentration (IC50) under setting [1] came out at 1.2 nM. In the case of `CCc1cc([C@@H](C)N(C(=O)[C@H]2CNCCO2)C2CC2)cc(OCCNC(=O)OC)n1` [Example 109], the concentration for half-maximal inhibition (IC50) (read-out: IC50) came out at 3.4 nM. On the same count and under the same terms, next, `COCc1ccc2c([C@@H](C)N(C(=O)[C@H]3CNCCO3)C3CC3)nn(CCCNC(=O)OC)c2n1` [Example 105]: 1.2 nM. As for `COC(=O)NCCCn1cc([C@@H](C)N(C(=O)[C@H]2CNC[C@@H](C(F)(F)F)O2)C2CC2)c2ncccc21` [Example 252], under setting [1], the concentration for half-maximal inhibition (IC50) amounted to 6.4 nM.

For the molecule `COC(=O)NCCCn1nc([C@@H](C)N(C(=O)[C@H]2CNCCO2)C2CC2)c2ccc(C)cc21` [Example 29], where the note is “read-out: IC50”, the concentration for half-maximal inhibition (IC50) is 0.6 nM.
